The nature of series [1]: Rate of carbon disulfide loss from solutions on nitrogen bubbling (mass spectrometer). The conditions noted are these: undiluted (pure CS2; Ex. 1 100%). It counts as physicochemical. The method, then:
The rate at which carbon disulfide is lost from diluted ammonium thiocarbonate compositions was determined by bubbling nitrogen through the solutions and measuring the carbon disulfide content of the gas which leaves the solution using a mass spectrometer.
In the determination, the solution, corresponding to that of Example 1 (containing 14.1 percent by weight carbon disulfide), was compared to pure carbon disulfide, and to serial dilutions of the Example 1 solution with water, which were 10, 1 and 0.1 volume percent solutions of the original composition. The results are tabulated below, wherein k is the calculated first order rate constant for loss of carbon disulfide, and t is the solution half-life.

Series [2] is described as follows: Effect of pH on production of CS2 from thiocarbonates in citrate-phosphate buffers (gas chromatography of air). It counts as physicochemical. The method, then:
Pure carbon disulfide was also injected, for comparison. A syringe was used to periodically sample air in the bottle, and the air was analyzed by gas chromotography.

A short description of series [3]: Degradation time in sandy loam soil at different moisture (CS2 in air space by gas chromatography). It counts as physicochemical. The method, then:
A sandy loam soil was placed in 1-liter glass bottles, fitted with stoppers having fluorocarbon liners and silicone rubber septa, to give a soil depth of about 4 cm. Water was added to the soil, in quantities to obtain 50 and 100 percent soil saturation. Thiocarbonate solution or carbon disulfide was then injected near the bottom of the soil layer, the bottles were promptly sealed, and the air space in the bottles was sampled at intervals with a syringe, for gas chromatographic analysis of CS₂. The results are summarized below, wherein degradation time is the number of hours required to achieve the maximum CS₂ concentration in the air space.

A further series concerns Fusarium oxysporum. Description: Fungicidal test, radial growth of mycelia from treated agar blocks. It counts as cell-based. The conditions noted are these: listed as CaCS₄ (2.8%CS₂). The method, then: (§1) Thiocarbonate solutions were used in a test of their fungicidal properties. Cultures of four plant pathogenic fungi were grown upon potato dextrose agar at room temperature, in diffuse natural lighting. After one week, square blocks having 2 millimeter sides were cut from the edges of actively drawings mycelia spots on the agar.
(§2) The blocks were immersed in sterile deionized water, as a control, or in dilutions of thiocarbonate solutions using the sterile water, in a closed container. Subsequently, the blocks were removed and placed upon agar in clean plates, and mycelia were allowed to grow for one week.
(§3) Radial growth of mycelia colonies was measured for each of the six to eight replicate plates used for a particular fungus, and average colony radius was calculated. Percent control is defined by the following equation: […]
(§4) Concentrations given for solutions used to treat the agar blocks are expressed in grams of thiocarbonate solution per liter of diluted solution.

The next series deals with Phytophthora cinnamomi. The description is as above. It counts as cell-based. The conditions noted are these: listed as CaCS₄ (2.8%CS₂). The protocol: as §1, §2, §3, §4
For a further series, the system named is Sclerotium rolfsii. The series is described as above. The conditions noted are these: listed as CaCS₄ (2.8%CS₂). It counts as cell-based. The protocol: as §1, §2, §3, §4
A further series has as its system Verticillium dahliae. The description is as above. It counts as cell-based. The conditions noted are these: listed as CaCS₄ (2.8%CS₂). The method, then:
as §1, §2, §3, §4

In series [4] the test system is sugar beet cyst nematodes (Heterodera spp.). Briefly: Soil treatment of infested sugar beets. It counts as in vivo. The conditions noted are these: about 94 kilograms per hectare, dissolved in irrigation water. The protocol: Sugar beets, infested with sugar beet cyst nematodes (Heterodera spp.), were treated by application to the soil of about 94 kilograms per hectare of CaCS₄, dissolved in irrigation water.

A further series relates to Fusarium spp. Briefly: Petri dish tests in potato dextrose agar and broth. It counts as cell-based. The conditions noted are these: when the broth also contained Trichoderma spp., read-out: solution concentration with which control was obtained. The source says:
In petri dish tests of CaCS₄ against the fungus Fusarium spp., control with solutions containing less than about 10 grams per liter of the compound, in both potato dextrose agar and potato dextrose broth, was obtained using the solution when the broth also contained another fungus, Trichoderma spp.

In series [5] the test system is nitrification of ammoniacal fertilizers in soil. Briefly: Inhibition of nitrification of urea in sandy loam soil plots. The conditions noted are these: 5 weight percent solution at 100 liters per acre after 200 lbs. urea per acre; versus untreated plot. The source says: The ability of the described thiocarbonate compounds to inhibit nitrification of ammoniacal fertilizers in soil can be illustrated by applying to two separate plots of sandy loam soil a urea solution in irrigation water at a rate corresponding to 200 lbs. urea per acre with sufficient water to increase the soil water content to at least 50 percent. This application can be followed, on one of the plots treated with the urea solution and within one hour of application of the urea solution, with application of an aqueous solution containing 5 weight percent calcium tetrathiocarbonate applied at a rate of 100 liters per acre in sufficient irrigation water to increase the soil water content to 100 percent of saturation.

Series [6] is described as follows: Solvency of aqueous thiocarbonate solutions for urea. The conditions noted are these: 41.5 percent by weight aqueous solution; room temperature. It counts as physicochemical. The protocol:
Urea was added to a 41.5 percent, by weight, aqueous solution of calcium tetrathiocarbonate until the solubility limit of urea was reached. At room temperature, the solution dissolved 122 percent by weight urea. The resulting solution was 55 percent urea, 18.6 percent calcium tetrathiocarbonate, and 26.3 percent water, by weight. Thus, the solvency of the aqueous solution of calcium tetrathiocarbonate for urea was at least as great as that of water alone. Similarly, a 46 percent solution of potassium tetrathiocarbonate dissolved 100 percent of its own weight of urea. Similar results were obtained with other tri- and tetrathiocarbonates of alkali metal and alkaline earth metals.

Series [7] concerns root-knot nematode larvae. Description: Greenhouse nematocide experiment with tomato plants, root gall count. It counts as in vivo. The conditions noted are these: Application 50 ppm; mean of four replicates; asterisk = statistically indistinguishable. The text has this: (§5) Eighty containers were used, each containing about 500 grams of sterilized sandy loam soil. Each container was given four 5-milliliter injections of extract from nematode-infested pepper roots, one inch below the soil surface, producing an initial population of 2000 root-knot nematode larvae per container.
(§6) Twenty treatments were replicated four times, each treatment consisting of solution injection into the soil at a two inch depth. The treatments included each of the six compositions from Example 3 at three levels, plus one level of the known nematocide 1,2-dibromo-3-chloropropane (DBCP), and a control with only water injected. After injection, each container was enclosed in a plastic bag and placed in the shade for three days. Upon removing the bags, the soils were aerated by stirring and were allowed to stand undisturbed for eight additional days. Following an additional aeration, a tomato seedling was planted in eac pot.
(§7) Each container received 25 milligrams nitrogen (as calcium nitrate) immediately after planting, followed by 2 grams of a slow release complete fertilizer. […] By use of a magnifying glass, the number of root galls was counted on each plant. […]
(§8) The results are shown in the following table, in which the "Application" represents milligrams of treatment per kilogram of soil, calculated as contained carbon disulfide for the Example 3 solutions. […]

A further series has as its system tomato plants. Briefly: Greenhouse nematocide experiment, plant dry weight / phytotoxicity. It counts as in vivo. The conditions noted are these: Application 50 ppm; 37 days of growth.
From the text: as §5, §6, §7, §8

[8] abbreviates: pH 5.2, 125 milligrams of thiocarbonate ion per liter.
Where [9] appears, read: pH 8.0, CaCS4 values above pH 7 called unreliable.

Marks after values point to notes of the source that are not given here.

Consider `S=C=S` [CS₂, carbon disulfide, reference compound], for which, in series [1], the “k, first order rate constant for loss of carbon disulfide” value is 2.0 h⁻¹. Also, the “Half-life (minutes) for production of carbon disulfide” value in [2] (setting [8]), in series [2] (pH 6.0), in [2] (pH 7.0) and in [2] (setting [9]) was 1 min each time. Moreover, the “Degradation Time” value in [3] (Soil Moisture 50 % of Saturation) and in series [3] (Soil Moisture 100 % of Saturation) was 3.5 h throughout.
Regarding `S=C(S)SS` [CaCS₄, calcium tetrathiocarbonate], the “Half-life (minutes) for production of carbon disulfide” value in [2] (setting [8]) was determined as 1 min; in [2] (pH 6.0), 1.8 min; in series [2] (pH 7.0), 2.7 min; in [2] (setting [9]), 8.0 min. Besides, the “Percent Control Fusarium oxysporum” value is given as 3% with Fusarium oxysporum (1 g/l), 18% with Fusarium oxysporum (10 g/l) and 100% in the series with Fusarium oxysporum (100 g/l thiocarbonate solution per liter of diluted solution). The “Percent Control Phytophthora cinnamomi” value in the series with Phytophthora cinnamomi (1 g/l) and with Phytophthora cinnamomi (10 g/l) was 56% throughout. Besides, the entries for the “Percent Control Sclerotium rolfsii” value in the series on Sclerotium rolfsii (1 g/l) and in the series on Sclerotium rolfsii (10 g/l) were 46% and 62%, respectively. Moreover, the “Percent Control Verticillium dahliae” value with Verticillium dahliae (1 g/l) was found to be 13%; in the series with Verticillium dahliae (10 g/l) it was 22%. Moreover, the “counts and viability of nematode larvae in the soil following treatment” value in series [4] is reported as “remained high, but the larvae were not viable”. Moreover, the minimal effective concentration in the series on Fusarium spp. is under 10000 µg/mL. Also, the “Degradation Time” value in series [3] (Soil Moisture 0 % of Saturation, hours to maximum CS2 concentration in the air space) worked out at 4 h. Further, in series [5], the “nitrification of urea in the treated soil” value was “nitrified more slowly”. Also, the “urea dissolved by the solution” value in series [6] is 122 percent by weight.
`ClCC(Br)CBr` (stereo not shown) [DBCP, 1,2-dibromo-3-chloropropane]: in series [7], the “Gall Count” value is recorded as 0*. In the series with tomato plants, the “Dry Weight, Grams Roots” value was 0.273 Grams and the “Dry Weight, Grams Total” value amounted to 1.238 Grams.

Source of the values: patent EP0366226A1, “Stabilized thiocarbonate solutions and the use thereof for controlling soil pests” (UNION OIL COMPANY OF CALIFORNIA, priority 1988, dated 1990).
